# Where no end group is shown, it is not given here.
# Target: CPAF (Chlamydia trachomatis serovar D, UniProt O84866)
# Assay: HPLC-based CPAF inhibition assay with Abz-tagged model substrate (SEQ ID NO:9)
# Type: biochemical, C. trachomatis
# Set-up: 6xHis; made in house; host or cells: E. coli BL21 (DE3), plasmid pET30b-CPAF
# Description: FIG. 1 depicts the results of HPLC-based CPAF inhibition assays using a model CPAF substrate (SEQ ID NO:9) to compare inhibition of CPAF protease activity by SEQ ID NO:7, SEQ ID NO:2, and lactacystin. HPLC-based assays were performed in a final volume of 100 μL containing assay buffer, CPAF (62.5 nM), substrate 1 (0.5 mM), and varying concentrations of inhibitor (0-240 μM).
# HPLC-based assays comprised an Abz-tagged model CPAF substrate (SEQ ID NO:9) and were performed in a final volume of 100 μL containing 150 mM NaCl, 50 mM Tris pH 7.50, purified CPAF (62.5 nM), fluorescent-tagged model CPAF substrate (0.5 mM), and varying concentrations of each candidate compound (0-240 μM). IC50 values were determined by pre-incubating CPAF with varying concentrations of candidate compound for 5 min at room temperature prior to initiation of the reaction via the addition of model CPAF substrate. Reactions were allowed to proceed for 90 seconds at 25° C., followed by removal of 80 μL aliquots and quenching by the addition of 1.2 M HCl (40 μL). Data were converted to percent activity relative to a control reaction without candidate compound and fit to the following equation using GraFit v6.0, where [I] is the concentration of candidate compound and s is a slope factor: […]
# Sequence of CPAF (O84866 276-601): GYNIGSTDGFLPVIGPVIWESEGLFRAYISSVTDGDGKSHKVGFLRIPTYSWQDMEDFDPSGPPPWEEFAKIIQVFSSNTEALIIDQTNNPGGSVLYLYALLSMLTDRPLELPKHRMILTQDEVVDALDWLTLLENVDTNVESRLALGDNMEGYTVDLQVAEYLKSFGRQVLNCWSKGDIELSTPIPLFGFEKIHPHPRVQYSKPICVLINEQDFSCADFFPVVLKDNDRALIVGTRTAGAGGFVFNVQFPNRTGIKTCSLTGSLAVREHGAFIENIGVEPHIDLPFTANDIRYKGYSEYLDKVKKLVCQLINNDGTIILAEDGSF
# Sequence of CPAF (O84866 1-234, added parts left off): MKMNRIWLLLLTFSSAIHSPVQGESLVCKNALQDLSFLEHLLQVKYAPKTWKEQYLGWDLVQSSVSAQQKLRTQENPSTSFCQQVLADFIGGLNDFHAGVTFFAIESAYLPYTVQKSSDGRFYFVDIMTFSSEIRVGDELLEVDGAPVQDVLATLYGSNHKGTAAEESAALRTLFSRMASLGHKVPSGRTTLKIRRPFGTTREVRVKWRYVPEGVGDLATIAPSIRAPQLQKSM
substance,measurement,setting,value
SLFYSPMVPHFWAELRNHYATSGLKRRRRRRRRR-NH2 [SEQ ID NO:7],IC50,"CPAF 62.5 nM, substrate SEQ ID NO:9 0.5 mM, inhibitor 0-240 μM",50 ± 7 nM
same,CPAF inhibition relative to SEQ ID NO:2,"HPLC-based assay, greater than SEQ ID NO:2",about 30 fold
same,CPAF inhibition relative to lactacystin,"HPLC-based assay, greater than lactacystin",about 200 fold
